Measured values from patent US20250155433A1, “FLUORESCENT SENSORS FOR DETECTION OF SIDEROPHORES AND OTHER MOLECULES PRODUCED BY BACTERIAL PATHOGENS” (Kansas State University Research Foundation, priority 2021, published 2025).

Experiments:
[1] = biological target: T1, HsaSCN (human siderocalin) (Homo sapiens, UniProt P80188, Q148C); test: Fluorescence quenching binding to purified HsaSCN-FM sensor; settings: ferric complexes and porphyrins; Cys residue Q128C, FM-labeled purified protein; NB = no binding; read-out: Affinity (KD) of sensor HsaSCN
T1 construct: adds a 6H-tag at either the N- or C-termini of the mature proteins; 6-His (N); made in house; host or cells: E. coli BL21 (pET28), IPTG-induced; purified on Talon Superflow

[2] = biological target: CcrHutA; test: Fluorescence quenching binding to CcrHutA-FM sensor; parameters: species or system Caulobacter crescentus; settings: porphyrins; Cys residue A635C, FM-labeled; NB = no binding; read-out: Affinity (KD) of sensor CcrHutA
Experimental: (§1) Fluorescence modifications. For modifications with maleimide fluorophores, we inoculated E. coli strains OKN3, OKN13, OKN359 or OKN1359, harboring plasmids that encoded a Cys mutant LGP, from frozen stocks into LB, grew them overnight and sub-cultured at 1% into iron-deficient MOPS minimal media, with shaking (200 rpm) at 37° C. for 10-12 h, until late exponential phase. After collecting the cells by centrifugation at 7500×g for 15 min, and washing with 50 mM NaHPO4, pH 6.7, we labeled the Cys-mutant LGP with 5 μM FM in 50 mM NaHPO4, pH 6.7 for 15 min at 37° C. FM. We terminated the labeling reactions with 100 μM β-mercaptoethanol. […] After electrophoresis, we first visualized the fluorescence labeling on a Typhoon 8600 Biomolecular Scanner (GE/Amersham), and then stained the gels with Coomassie blue R (153).
(§2) Fluorescence spectroscopic binding determinations. We observed fluorophore-labeled cells in an SLM AMINCO 8100 fluorescence spectrometer, upgraded with an OLIS operating system and software (OLIS SpectralWorks, OLIS Inc., Bogart, GA), to control its shutters, polarizers and data collection. We also utilized an OLIS Clarity fluorescence spectrometer for fluorescence assays. […] We performed each measurement in triplicate and calculated the mean value of F/F0 at each ligand concentration. […]

[3] = biological target: KpnFepA4984 (Klebsiella pneumoniae, UniProt A0ACD7TVS5, A414C); test: Fluorescence quenching binding to KpnFepA4984-FM sensor; settings: read-out: Affinity (KD) of sensor KpnFepA 4984, apo siderophore; apo (parenthetic value); A390C
Experimental: as §1, §2

[4] = biological target: KpnIroN (Klebsiella pneumoniae, UniProt A0ACD7U953, T234C); test: Fluorescence quenching binding to KpnIroN-FM sensor; settings: read-out: Affinity (KD) of sensor KpnIroN, apo siderophore; apo (parenthetic value); T210C
Experimental: as §1, §2

[5] = biological target: T2, PaeFepA (Pseudomonas aeruginosa, UniProt Q05098, S296C); test: Fluorescence quenching binding to PaeFepA-FM sensor
T2 construct: expressed in transfected cells; host or cells: E. coli OKN3/OKN13/OKN359/OKN1359 carrying a pITS23 derivative
Experimental: as §1, §2

[6] = biological target: T3, EcoFepA (Escherichia coli, UniProt P05825, A720C); test: biochemical; format: binding
T3 construct: expressed in transfected cells; host or cells: E. coli OKN3/OKN13/OKN359/OKN1359 carrying pITS23 (fepA under its own promoter)
Experimental: Fluorescence modifications. For modifications with maleimide fluorophores, we inoculated E. coli strains OKN3, OKN13, OKN359 or OKN1359, harboring plasmids that encoded a Cys mutant LGP, from frozen stocks into LB, grew them overnight and sub-cultured at 1% into iron-deficient MOPS minimal media, with shaking (200 rpm) at 37° C. for 10-12 h, until late exponential phase. After collecting the cells by centrifugation at 7500×g for 15 min, and washing with 50 mM NaHPO4, pH 6.7, we labeled the Cys-mutant LGP with 5 μM FM in 50 mM NaHPO4, pH 6.7 for 15 min at 37° C. FM. We terminated the labeling reactions with 100 μM β-mercaptoethanol. After collecting the fluoresceinated cells by centrifugation at 7500×g for 15 min, and washing with 50 mM NaHPO4, pH 6.7, we re-suspended them in PBS plus 0.2% glucose. We either immediately used the labeled cells in spectroscopic experiments, or rested them on ice (up to 24 h), or added glycerol to 15% and stored them (indefinitely) as 1 mL aliquots at −70° C. In the latter case, after thawing the labeled cells we pelleted them by centrifugation in a microfuge, washed them once with and re-suspended them in PBS containing 0.2% glucose. Lastly, for evaluation of protein expression or the extent of FM-labeling we solubilized aliquots of the cell suspensions with sample buffer, and subjected them to SDS-PAGE. After electrophoresis, we first visualized the fluorescence labeling on a Typhoon 8600 Biomolecular Scanner (GE/Amersham), and then stained the gels with Coomassie blue R (153).
Fluorescence spectroscopic binding determinations. We observed fluorophore-labeled cells in an SLM AMINCO 8100 fluorescence spectrometer, upgraded with an OLIS operating system and software (OLIS SpectralWorks, OLIS Inc., Bogart, GA), to control its shutters, polarizers and data collection. We also utilized an OLIS Clarity fluorescence spectrometer for fluorescence assays. For binding determinations we deposited 2.5×10^7 labeled cells in a quartz cuvette (final volume, 2 mL) with stirring at 37° C., measured the initial fluorescence (F0), and then added increasing concentrations of an iron complex while monitoring the quenching of fluorescence emissions (F) at 520 nm. We performed each measurement in triplicate and calculated the mean value of F/F0 at each ligand concentration. We plotted 1−F/F0 vs [ligand] and analyzed the data by the 1-site binding model of Grafit 6.0.12 (Erithacus Ltd. West Sussex, UK), that fits data to a single site saturation curve, where the amount of ligand bound is plotted as a function of the amount free:
These plots yielded KD values for each of the receptor-ligand interactions, with associated standard errors.
Table 1 lists KD values from analysis of fluorescence quenching with ferric or apo (parenthetic values) siderophores or porphyrins. For each determination, we measured the extent of fluorescence quenching of an FLGP, when exposed to sequentially increasing concentrations of the listed metal complexes, as plotted in FIGS. 2-4. We performed each experiment 2 or 3 times. The tabulated KD values are from single, representative experiments, in which we collected each data point in triplicate, plotted F/F0 vs [ligand] for each quenching titration, and fitted the curves to a single site binding model using Grafit 6.012 (Erithacus Ltd, […], UK).

[7] = biological target: KpnFepA1658 (Klebsiella pneumoniae, UniProt A6T631, A407C); test: Fluorescence quenching binding to KpnFepA1658-FM sensor; settings: read-out: Affinity (KD) of sensor KpnFepA 1658, apo siderophore; apo (parenthetic value); A382C
Experimental: as §1, §2

[8] = biological target: T4, EcoFepB (Escherichia coli, UniProt P0AEL6, T297C); test: biochemical; format: binding
T4 construct: adds a 6H-tag at either the N- or C-termini of the mature proteins; 6-His (N); made in house; host or cells: E. coli BL21 (pET28), IPTG-induced; purified on Talon Superflow
Excerpt: Cys Mutant protein expression and fluorescent labeling. The vector for LGP production, pITS23, carries wild-type EcofepA under control of its native, Fur-regulated promoter. For expression of each of the E. coli LGP (Fiu, FhuA, IutA, Cir, BtuB) we replaced EcofepA in pITS23 with the alternate LGP structural gene, with its own signal sequence, such that the iron-regulated EcofepA promoter-controlled biosynthesis. For LGP from of other species (KpnFepA, KpnIroN, KpnFyuA, AbaBauA, PaeFepA, PaeFpvA, CcrHutA), we replaced the sequence encoding mature EcoFepA with the sequence encoding the foreign mature LGP, downstream from the EcoFepA signal sequence, and regulated by the EcofepA promoter. […] We evaluated the expression and labeling of each of the cloned LGP by growing the appropriate E. coli host strain (OKN3, OKN359, OKN13 or OKN1359), harboring the plasmid constructs of interest, in iron-deficient MOPS medium to late log phase (A600 nm=2.5-3.5). We subsequently analyzed SDS-PAGE resolved samples of bacterial OM, or purified protein fractions, for fluorescence emissions at […] before staining with Coomassie blue R (FIGS. 7, 8, 9). In some cases, we used mouse monoclonal (α-EcoFepA) antibodies or rabbit polyclonal (α-FepB) antisera to determine the expression levels and stoichiometry of FM-labeling, which allowed quantification of expression. […]

T3 sequence (P05825 23-746 A720C): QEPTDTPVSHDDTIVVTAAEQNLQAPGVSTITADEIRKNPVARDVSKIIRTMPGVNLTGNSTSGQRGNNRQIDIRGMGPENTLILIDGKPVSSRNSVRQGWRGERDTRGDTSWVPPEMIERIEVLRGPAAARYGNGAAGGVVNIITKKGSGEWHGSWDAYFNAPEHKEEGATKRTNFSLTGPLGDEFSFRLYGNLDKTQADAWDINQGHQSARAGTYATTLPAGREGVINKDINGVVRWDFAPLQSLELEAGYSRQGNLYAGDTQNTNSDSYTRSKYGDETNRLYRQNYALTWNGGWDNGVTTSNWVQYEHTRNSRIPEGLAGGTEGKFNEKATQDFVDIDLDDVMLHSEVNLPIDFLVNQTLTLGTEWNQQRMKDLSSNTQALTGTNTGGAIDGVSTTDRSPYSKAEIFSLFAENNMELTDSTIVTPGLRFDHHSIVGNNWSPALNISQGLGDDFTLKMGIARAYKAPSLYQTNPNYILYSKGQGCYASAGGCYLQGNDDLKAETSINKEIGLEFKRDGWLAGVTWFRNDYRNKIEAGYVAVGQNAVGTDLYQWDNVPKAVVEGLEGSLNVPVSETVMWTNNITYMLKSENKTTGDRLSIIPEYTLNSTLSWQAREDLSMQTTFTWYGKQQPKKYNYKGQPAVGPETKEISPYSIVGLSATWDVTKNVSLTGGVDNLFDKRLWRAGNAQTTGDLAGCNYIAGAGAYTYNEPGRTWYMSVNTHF
T4 sequence (P0AEL6 27-318 T297C): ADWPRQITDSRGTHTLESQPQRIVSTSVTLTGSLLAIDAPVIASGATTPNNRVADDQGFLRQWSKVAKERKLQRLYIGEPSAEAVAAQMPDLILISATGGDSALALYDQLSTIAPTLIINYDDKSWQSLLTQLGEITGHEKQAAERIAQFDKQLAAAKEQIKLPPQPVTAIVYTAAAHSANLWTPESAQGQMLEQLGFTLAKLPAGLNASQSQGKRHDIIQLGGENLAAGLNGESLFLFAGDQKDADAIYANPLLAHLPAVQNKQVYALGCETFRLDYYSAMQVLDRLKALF
T1 sequence (P80188 21-198 Q148C): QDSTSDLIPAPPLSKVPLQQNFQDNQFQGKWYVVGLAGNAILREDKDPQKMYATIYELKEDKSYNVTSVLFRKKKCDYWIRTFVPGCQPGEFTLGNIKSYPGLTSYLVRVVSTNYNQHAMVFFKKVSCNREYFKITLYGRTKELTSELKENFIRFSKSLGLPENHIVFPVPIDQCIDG

hemin [Hn]
Kd [1]: 340 nM | Kd [2]: 150 nM

O=C(N[C@H]1COC(=O)[C@@H](NC(=O)c2cccc(O)c2O)COC(=O)[C@@H](NC(=O)c2cccc(O)c2O)COC1=O)c1cccc(O)c1O [Ent, enterobactin]
Kd [3]: 3.3 µM | Kd [4]: 40 nM | Kd [5]: 1700 nM | Kd ([6]; Affinity (KD) of sensor EcoFepA, apo siderophore, apo (parenthetic value), A698C): 30 nM | Kd ([6]; KD, EcoFepA / EcoFepA-FM): 43 nM | Kd [7]: 70 nM | Kd [8]: 6 µM
